Data on 29 molecules can be found in PubChem BioAssay AID720512 (Broad Institute, 2013).

Active and inactive are the calls of the source. How the calls were made is not given here.

The first test concerns the target Toxin B (TcdB) glycohydrolase, Clostridioides difficile 630. As to the kind of experiment: TcdB glycohydrolase inhibitors, dose response, biochemical, cherry-pick, plate reader (AID 720512). The note with it: recombinant TcdB glycohydrolase activity.
As for `COc1cc(/C=C/C(=O)OCC(=O)NC(=O)NC(C)C)ccc1O`, the AC50 is > 39 µM (inactive).

Consider `CCCNC(=O)N1CC[C@@H]2[C@@H](CO)N(C)c3ccc(-c4ccccc4)cc3[C@@H]21`, for which the AC50 is > 39 µM (inactive).

Take `CCOC(=O)/C(=N/Nc1ccc(Br)cc1)N1CC(C)OC(C)C1` (centres undefined): the AC50 was 6.61 µM.

Staying with this test, now noted: recombinant TcdB glycohydrolase activity, at 19.5 µM (top of the series).
For the molecule `COC(=O)CN1C(C)=Nc2ccc(Br)cc2C1c1ccccc1` (centres undefined), the “activity change, negative = inhibition” value was “inactive”.

`COc1ccc(C2=NS(=O)(=O)N(C)C(C(=O)NC(C)c3ccccc3)=C2)cc1` (centres undefined): the “activity change, negative = inhibition” value is “inactive”.

Regarding `C=CCn1c(C)cc(C(=O)COC(=O)CCc2cc(OC)c(OC)c(OC)c2)c1C`, the “activity change, negative = inhibition” value is “inactive”.

As to `CCc1ccc2oc(-c3cc(N)ccc3Cl)nc2c1`, the “activity change, negative = inhibition” value was “inactive”.

With `COC(=O)c1sc2nc(SCc3ccccc3C)n(N)c(=O)c2c1C`, the “activity change, negative = inhibition” value was “inactive”.

`COCCNc1oc(/C=C/c2ccccc2)nc1C#N`: the “activity change, negative = inhibition” value was “inactive”.

Regarding `Nc1ccc2c(c1)[nH]c(=O)c1cc(N)ccc12`, the “activity change, negative = inhibition” value was “inactive”.

In the case of `COc1ccc(CNC(=O)c2cc3c(s2)CN(Cc2ccccc2)C3)cc1`, the “activity change, negative = inhibition” value is “inactive”.

Regarding `C[C@H](CO)N1C[C@H](C)[C@@H](CN(C)CC2CCCCC2)Oc2ccc(NC(=O)CCN3CCOCC3)cc2C1=O`, the “activity change, negative = inhibition” value is “inactive”.

With `Cc1cccc(-c2n[nH]c(=S)n2/N=C/C=C/c2ccco2)c1`, the “activity change, negative = inhibition” value was “inactive”.

Regarding `Nc1cc(=O)[nH]c(SCC(=O)Nc2ccccc2Sc2ccc(Cl)cc2)n1`, the “activity change, negative = inhibition” value is “inactive”.

In the case of `COc1ccc(C)cc1NC(=O)C(OC(=O)C1=NNC(=O)CC1)c1ccccc1` (centres undefined), the “activity change, negative = inhibition” value was “inactive”.

Turning to `COc1ccc(CNC(=O)C2=CC(c3ccc(C)cc3)=NS(=O)(=O)N2C)cc1`, the “activity change, negative = inhibition” value is “inactive”.

Regarding `COc1ccc(-c2ccc3c(c2)[C@@H]2[C@@H](CCN2C(=O)CN2CCOCC2)[C@H](CO)N3)cc1`, the “activity change, negative = inhibition” value is “inactive”.

For `O=S(=O)(Nc1ccc(O)cc1)c1cccc2cccnc12`, the “activity change, negative = inhibition” value was “inactive”.

With `CCOCCCNC(=O)C1CCN(S(=O)(=O)c2c(C)noc2/C=C\c2ccc(OC)cc2)CC1`, the “activity change, negative = inhibition” value is “inactive”.

Regarding `COc1cc2[nH]c(=S)n(Cc3cccs3)c(=O)c2cc1OC`, the “activity change, negative = inhibition” value was “inactive”.

Take `Cc1cc(=O)oc2c(N)c(O)ccc12`: the “activity change, negative = inhibition” value is “inactive”.

As for `Cc1cc(C(C)(C)C)cc(CN2CCN(S(=O)(=O)c3cccs3)CC2)c1O`, the “activity change, negative = inhibition” value is “inactive”.

With `CCOC(CCNC(=O)c1cn(CCOC)c(=O)c2c1c1ccccc1n2C)OCC`, the “activity change, negative = inhibition” value was “inactive”.

In the case of `COC(=O)C1=C(c2ccc(F)cc2OCc2ccccc2)C[C@@H]2CC[C@H]1N2C(=O)N1CCCC1`, the “activity change, negative = inhibition” value was “inactive”.

Turning to `COc1ccc(Br)cc1C(=O)Nc1ccc(O)cc1`, the “activity change, negative = inhibition” value is “inactive”.

As for `O=C(O)C1C(=O)NCC1c1ccccc1` (centres undefined), the “activity change, negative = inhibition” value was “inactive”.

As to `O=C(Nc1ccccc1F)N(Cc1ccc(F)cc1)Cc1nc2ccccc2c(=O)[nH]1`, the “activity change, negative = inhibition” value was “inactive”.

As for `COc1cc(NC(=O)CSc2nc3[nH]ncc3c(=O)n2-c2ccccc2C)cc(OC)c1OC`, the “activity change, negative = inhibition” value was “inactive”.

For `COc1ccc(CNC(=O)C2CCN(S(=O)(=O)c3c(C)noc3/C=C/N(C)C)CC2)cc1`, the “activity change, negative = inhibition” value is “inactive”.
